In brackets after ≈: the same amount, converted by molar mass. Read-outs that look alike come from different tables or passages of the source.
System: P. aeruginosa
Assay: MIC, broth microdilution, CDC/FDA Antibiotic Resistance Isolate Bank (Example 7, Tables 10, 15)
Type: cell-based
Details: Pseudomonas aeruginosa, read-out: MIC

CC(C)(O/N=C(\C(=O)N[C@@H]1C(=O)N2C(C(=O)[O-])=C(C[N+]3(CCNC(=O)c4ccc(O)c(O)c4Cl)CCCC3)CS[C@H]12)c1csc(N)n1)C(=O)O [Cefiderocol, cefiderocol]
MIC (P. aeruginosa KUB No. 5666, AR Bank # 23): 120 ng/mL (≈ 160 nM) | MIC (P. aeruginosa KUB No. 5667, AR Bank # 234): 250 ng/mL (≈ 332 nM) | MIC (P. aeruginosa KUB No. 5668, AR Bank # 235): 1000 ng/mL (≈ 1330 nM) | MIC (P. aeruginosa KUB No. 5669, AR Bank # 236): 250 ng/mL (≈ 332 nM) | MIC (P. aeruginosa KUB No. 5670, AR Bank # 237): 250 ng/mL (≈ 332 nM) | MIC (P. aeruginosa KUB No. 5671, AR Bank # 238): 1000 ng/mL (≈ 1330 nM) | MIC (P. aeruginosa KUB No. 5672, AR Bank # 239): 2000 ng/mL (≈ 2660 nM) | MIC (P. aeruginosa KUB No. 5673, AR Bank # 240): 1000 ng/mL (≈ 1330 nM) | MIC (P. aeruginosa KUB No. 5674, AR Bank # 241): 250 ng/mL (≈ 332 nM) | MIC (P. aeruginosa KUB No. 5675, AR Bank # 242): 500 ng/mL (≈ 665 nM) | MIC (P. aeruginosa KUB No. 5676, AR Bank # 243): 500 ng/mL (≈ 665 nM) | MIC (P. aeruginosa KUB No. 5677, AR Bank # 244): 250 ng/mL (≈ 332 nM) | MIC (P. aeruginosa KUB No. 5678, AR Bank # 245): 250 ng/mL (≈ 332 nM) | MIC (P. aeruginosa KUB No. 5679, AR Bank # 246): 4000 ng/mL (≈ 5320 nM) | MIC (P. aeruginosa KUB No. 5680, AR Bank # 247): 120 ng/mL (≈ 160 nM) | MIC (P. aeruginosa KUB No. 5681, AR Bank # 248): 500 ng/mL (≈ 665 nM) | MIC (P. aeruginosa KUB No. 5682, AR Bank # 249): 500 ng/mL (≈ 665 nM) | MIC (P. aeruginosa KUB No. 5684, AR Bank # 251): 120 ng/mL (≈ 160 nM) | MIC (P. aeruginosa KUB No. 5685, AR Bank # 252): 2000 ng/mL (≈ 2660 nM) | MIC (P. aeruginosa KUB No. 5686, AR Bank # 253): 120 ng/mL (≈ 160 nM) | MIC (P. aeruginosa KUB No. 5687, AR Bank # 254): 500 ng/mL (≈ 665 nM) | MIC (P. aeruginosa KUB No. 5688, AR Bank # 255): 250 ng/mL (≈ 332 nM) | MIC (P. aeruginosa KUB No. 5689, AR Bank # 256): 2000 ng/mL (≈ 2660 nM) | MIC (P. aeruginosa KUB No. 5690, AR Bank # 257): 250 ng/mL (≈ 332 nM) | MIC (P. aeruginosa KUB No. 5691, AR Bank # 258): 250 ng/mL (≈ 332 nM) | MIC (P. aeruginosa KUB No. 5692, AR Bank # 259): 120 ng/mL (≈ 160 nM) | MIC (P. aeruginosa KUB No. 5693, AR Bank # 260): 250 ng/mL (≈ 332 nM) | MIC (P. aeruginosa KUB No. 5694, AR Bank # 261): ≤ 60 ng/mL | MIC (P. aeruginosa KUB No. 5695, AR Bank # 262): 120 ng/mL (≈ 160 nM) | MIC (P. aeruginosa KUB No. 5696, AR Bank # 263): 120 ng/mL (≈ 160 nM) | MIC (P. aeruginosa KUB No. 5697, AR Bank # 264): 250 ng/mL (≈ 332 nM) | MIC (P. aeruginosa KUB No. 5698, AR Bank # 265): 500 ng/mL (≈ 665 nM) | MIC (P. aeruginosa KUB No. 5699, AR Bank # 266): 500 ng/mL (≈ 665 nM) | MIC (P. aeruginosa KUB No. 5700, AR Bank # 267): 120 ng/mL (≈ 160 nM) | MIC (P. aeruginosa KUB No. 5701, AR Bank # 268): 250 ng/mL (≈ 332 nM) | MIC (P. aeruginosa KUB No. 5702, AR Bank # 269): 1000 ng/mL (≈ 1330 nM) | MIC (P. aeruginosa KUB No. 5703, AR Bank # 270): 250 ng/mL (≈ 332 nM) | MIC (P. aeruginosa KUB No. 5704, AR Bank # 271): 250 ng/mL (≈ 332 nM) | MIC (P. aeruginosa KUB No. 5705, AR Bank # 272): 250 ng/mL (≈ 332 nM) | MIC (P. aeruginosa KUB No. 5747, AR Bank # 351): 250 ng/mL (≈ 332 nM) | MIC (P. aeruginosa KUB No. 5748, AR Bank # 352): 500 ng/mL (≈ 665 nM) | MIC (P. aeruginosa KUB No. 5749, AR Bank # 353): 1000 ng/mL (≈ 1330 nM) | MIC (P. aeruginosa KUB No. 5750, AR Bank # 354): 500 ng/mL (≈ 665 nM) | MIC (P. aeruginosa KUB No. 5751, AR Bank # 355): 250 ng/mL (≈ 332 nM) | MIC (P. aeruginosa KUB No. 5752, AR Bank # 356): 1000 ng/mL (≈ 1330 nM) | MIC (P. aeruginosa KUB No. 5753, AR Bank # 357): 4000 ng/mL (≈ 5320 nM) | MIC (P. aeruginosa KUB No. 5754, AR Bank # 358): 500 ng/mL (≈ 665 nM) | MIC (P. aeruginosa KUB No. 5755, AR Bank # 359): 250 ng/mL (≈ 332 nM) | MIC (P. aeruginosa KUB No. 5756, AR Bank # 360): 250 ng/mL (≈ 332 nM) | MIC (P. aeruginosa KUB No. 5785, AR Bank # 439): 500 ng/mL (≈ 665 nM) | MIC (P. aeruginosa KUB No. 5786, AR Bank # 440): 250 ng/mL (≈ 332 nM) | MIC (P. aeruginosa KUB No. 5787, AR Bank # 441): 1000 ng/mL (≈ 1330 nM) | MIC (P. aeruginosa KUB No. 5788, AR Bank # 443): 1000 ng/mL (≈ 1330 nM) | MIC (P. aeruginosa KUB No. 5789, AR Bank # 444): 500 ng/mL (≈ 665 nM) | MIC (P. aeruginosa KUB No. 5790, AR Bank # 445): 500 ng/mL (≈ 665 nM) | MIC (P. aeruginosa KUB No. 5793, AR Bank # 449): 500 ng/mL (≈ 665 nM) | MIC (P. aeruginosa KUB No. 5798, AR Bank # 455): 250 ng/mL (≈ 332 nM) | MIC (P. aeruginosa KUB No. 5799, AR Bank # 456): 250 ng/mL (≈ 332 nM) | MIC (P. aeruginosa KUB No. 5800, AR Bank # 457): 250 ng/mL (≈ 332 nM) | MIC (P. aeruginosa KUB No. 5801, AR Bank # 458): 2000 ng/mL (≈ 2660 nM) | MIC (P. aeruginosa KUB No. 5802, AR Bank # 459): 120 ng/mL (≈ 160 nM) | MIC (P. aeruginosa KUB No. 5804, AR Bank # 862): 500 ng/mL (≈ 665 nM) | MIC (P. aeruginosa KUB No. 5805, AR Bank # 863): 500 ng/mL (≈ 665 nM) | MIC (P. aeruginosa KUB No. 5806, AR Bank # 864): 120 ng/mL (≈ 160 nM) | MIC (P. aeruginosa KUB No. 5813, AR Bank # 508): 1 ng/mL (≈ 1.33 nM) | MIC (P. aeruginosa KUB No. 5814, AR Bank # 509): 0.5 ng/mL (≈ 0.665 nM) | MIC (P. aeruginosa KUB No. 5815, AR Bank # 510): ≤ 0.06 ng/mL | MIC (P. aeruginosa KUB No. 5816, AR Bank # 511): 0.25 ng/mL (≈ 0.332 nM) | MIC (P. aeruginosa KUB No. 5817, AR Bank # 512): 1 ng/mL (≈ 1.33 nM) | MIC (P. aeruginosa KUB No. 5818, AR Bank # 513): 0.25 ng/mL (≈ 0.332 nM) | MIC (P. aeruginosa KUB No. 5819, AR Bank # 514): 0.12 ng/mL (≈ 0.16 nM) | MIC (P. aeruginosa KUB No. 5820, AR Bank # 515): 1 ng/mL (≈ 1.33 nM) | MIC (P. aeruginosa KUB No. 5821, AR Bank # 516): 0.5 ng/mL (≈ 0.665 nM) | MIC (P. aeruginosa KUB No. 5823, AR Bank # 518): 0.25 ng/mL (≈ 0.332 nM) | MIC (P. aeruginosa KUB No. 5831, AR Bank # 526): 0.12 ng/mL (≈ 0.16 nM) | MIC (P. aeruginosa KUB No. 5832, AR Bank # 527): 0.25 ng/mL (≈ 0.332 nM) | MIC (P. aeruginosa KUB No. 5833, AR Bank # 528): 0.25 ng/mL (≈ 0.332 nM) | MIC (P. aeruginosa KUB No. 5834, AR Bank # 529): ≤ 0.06 ng/mL

— patent EP4635500A1, “THERAPEUTIC AGENT FOR BACTERIAL INFECTION” (Sumitomo Pharma Co., Ltd., priority 2022, dated 2024)
